The source of these data is ChEMBL document CHEMBL1140569, “Synthesis and structure-activity relationships of thieno[2,3-b]pyrroles as antagonists of the GnRH receptor” (Bioorg Med Chem Lett, 2007).

A short description of series [1]: Plasma clearance in rat. In kind it is ADME, organism-based.
The nature of series [2]: Oral bioavailability in rat. The conditions noted are these: in vivo. The class given is ADME, organism-based.
Series [3] is described as follows: Solubility in 0.1 M phosphate buffer at pH 7.4.
Series [4] in a line: AUC in rat at 10 mg/kg, po. The conditions noted are these: plasma. On the set-up: dose 10 mg/kg, route oral. In kind it is ADME, organism-based.
Series [5] is described as follows: AUC in rat at 1 mg/kg, po. In kind it is ADME, organism-based. On the set-up: dose 1 mg/kg, route oral. The conditions noted are these: plasma.
Another series deals with Cytochrome P450 3A4 (Homo sapiens, UniProt P08684). Description: Inhibition of human CYP3A4.
Another series concerns Rattus norvegicus. Description: Inhibition of LH production in castrated AP Wistar Han rat model at 75 mg/kg, po after 12 hrs by radioimmunoassay. The class given is functional, organism-based. The arrangement: dose 75 mg/kg.

pIC50: −log10 of the molar value. In brackets after ≈: the same amount, converted by molar mass. Activity calls are given as the source filed them. The calls are words filed in the database; no cut-off is given here.

Chain of Cytochrome P450 3A4 (P08684 whole entry): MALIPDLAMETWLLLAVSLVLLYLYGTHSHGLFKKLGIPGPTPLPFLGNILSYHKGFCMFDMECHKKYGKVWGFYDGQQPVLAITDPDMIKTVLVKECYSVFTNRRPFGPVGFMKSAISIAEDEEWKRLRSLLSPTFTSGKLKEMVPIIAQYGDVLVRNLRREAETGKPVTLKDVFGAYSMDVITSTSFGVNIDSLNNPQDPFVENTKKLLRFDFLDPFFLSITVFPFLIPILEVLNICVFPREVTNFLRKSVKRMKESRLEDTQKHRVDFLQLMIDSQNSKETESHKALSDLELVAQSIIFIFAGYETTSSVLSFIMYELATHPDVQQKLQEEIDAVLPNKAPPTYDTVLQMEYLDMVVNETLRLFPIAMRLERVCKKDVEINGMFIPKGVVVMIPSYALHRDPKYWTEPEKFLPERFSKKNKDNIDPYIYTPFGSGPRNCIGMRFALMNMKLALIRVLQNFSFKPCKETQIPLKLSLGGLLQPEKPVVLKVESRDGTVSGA

For the compound `Cc1cc(C)cc(-c2[nH]c3sc(C(C)(C)C(=O)N4C5CCC4CC5)cc3c2CCN2CCN(CC(=O)N3CCOCC3)CC2)c1`, the clearance (usually a measure of how efficiently the substance is removed, as volume per time) in series [1] worked out at 153 mL/min/kg. For the same compound, the bioavailability (usually the share of a dose that reaches the circulation, judged against a reference dose that is usually intravenous) in series [2] turned out to be 4%. Take `Cc1cc(C)cc(-c2[nH]c3sc(C(C)(C)C(=O)N4C5CCC4CC5)cc3c2CCN2CCN(CC(=O)N(C)C)CC2)c1`: in series [3], the solubility (as a rule, the concentration that dissolves in the medium under given conditions) was 104 µM (≈ 61.3 µg/mL). Regarding `Cc1cc(C)cc(-c2[nH]c3sc(C(C)(C)C(=O)N4C5CCC4CC5)cc3c2C(=O)CN2CCN(CC(=O)N3CCCC3)CC2)c1`, the solubility in series [3] is 947 µM (≈ 596 µg/mL).

The compound `Cc1cc(C)cc(-c2[nH]c3sc(C(C)(C)C(=O)N4C5CCC4CC5)cc3c2[C@H](C)CNC(=O)N2CCC(c3ccncc3)CC2)c1` registered a solubility in series [3] of 0.6 µM (≈ 0.383 µg/mL). `COC1CCN(C(=O)C2CCN(CCc3c(-c4cc(C)cc(C)c4)[nH]c4sc(C(C)(C)C(=O)N5C6CCC5CC6)cc34)CC2)CC1` registered a clearance in series [1] of 0.1 mL/min/kg. The AUC (commonly concentration integrated over time) in series [4] is 358 µM·h. Moreover, the bioavailability in series [2] was 35%. On to `Cc1cc(C)cc(-c2[nH]c3sc(C(C)(C)C(=O)N4C5CCC4CC5)cc3c2CCN2CCC(CNC(=O)N3CCOCC3)CC2)c1`, for which the AUC in series [5] was 0.018 µM·h.

`Cc1cc(C)cc(-c2[nH]c3sc(C(C)(C)C(=O)N4C5CCC4CC5)cc3c2CN2CCN(CC(=O)N3CCCC3)CC2)c1`: the concentration in solution in series [3] (solubility) came to 2 µM (≈ 1.2 µg/mL).

On to `Cc1cc(C)cc(-c2[nH]c3sc(C(C)(C)C(=O)N4C5CCC4CC5)cc3c2[C@H](C)CN/C(=N/C(=O)OC(C)C)N2CCC(c3ccncc3)CC2)c1`, for which, in series [3], the solubility worked out at 1.4 µM (≈ 1.01 µg/mL).

As to `Cc1cc(C)cc(-c2[nH]c3sc(C(C)(C)C(=O)N4C5CCC4CC5)cc3c2CCN2CCC(N3CCOCC3)CC2)c1`, the AUC in series [5] stood at 0.006 µM·h. For the compound `Cc1cc(C)cc(-c2[nH]c3sc(C(C)(C)C(=O)N4C5CCC4CC5)cc3c2CCN2CCN(CC(O)CN3CCNCC3)CC2)c1` (stereo not drawn), the negative logarithm of the IC50 (pIC50) – broadly, −log10 of the IC50, conventionally taken in molar units – on Cytochrome P450 3A4 was under 5.00. Moreover, the concentration in solution in series [3] (solubility) was 425 µM (≈ 275 µg/mL). Regarding `Cc1cc(C)cc(-c2[nH]c3sc(C(C)(C)C(=O)N4C5CCC4CC5)cc3c2CCN2CCC(CC(=O)N3CCOCC3)CC2)c1`, the AUC in series [5] amounted to 0.041 µM·h. With `COC(=O)/N=C(/NC[C@@H](C)c1c(-c2cc(C)cc(C)c2)[nH]c2sc(C(C)(C)C(=O)N3C4CCC3CC4)cc12)N1CCC(c2ccncc2)C1` (stereo partly drawn), the concentration in solution in series [3] (solubility) was 4.6 µM (≈ 3.13 µg/mL). For the compound `Cc1cc(C)cc(-c2[nH]c3sc(C(C)(C)C(=O)N4CCCC4)cc3c2[C@H](C)CNC(=O)N2CCC(c3ccccc3)C2)c1` (stereo partly drawn), in series [3], the concentration in solution (solubility) was 56 µM (≈ 33.4 µg/mL). For the compound `Cc1cc(C)cc(-c2[nH]c3sc(C(C)(C)C(=O)N4C5CCC4CC5)cc3c2CCN2CCC(C(=O)N3CCCC(O)C3)CC2)c1` (stereo not drawn), in series [1], the clearance came to 1.3 mL/min/kg. The area under the curve (AUC) in series [4] is 39.3 µM·h. In series [3], `Cc1cc(C)cc(-c2[nH]c3sc(C(C)(C)C(=O)N4C5CCC4CC5)cc3c2[C@H](C)CNC(=NC(=O)OC(C)C)N2CCC(c3ccncc3)C2)c1` (stereo partly drawn) registered a solubility of 0.8 µM (≈ 0.567 µg/mL). In series [4], `Cc1cc(C)cc(-c2[nH]c3sc(C(C)(C)C(=O)N4C5CCC4CC5)cc3c2CCN2CCC(C(=O)N3CCOCC3)C(C)C2)c1` (stereo not drawn) displayed an AUC of 0.254 µM·h. As to `Cc1cc(C)cc(-c2[nH]c3sc(C(C)(C)C(=O)N4C5CCC4CC5)cc3c2CCN2CCC(OCC(=O)N3CCOCC3)CC2)c1`, the AUC in series [4] turned out to be 0.526 µM·h. In turn, `CC(=O)NC1CCN(C(=O)CN2CCN(CCc3c(-c4cc(C)cc(C)c4)[nH]c4sc(C(C)(C)C(=O)N5C6CCC5CC6)cc34)CC2)C1` (stereo not drawn) showed a solubility in series [3] of 107 µM (≈ 72 µg/mL). On to `COC1CCN(C(=O)C2CCN(CCc3c(-c4cc(C)cc(C)c4)[nH]c4sc(C(C)(C)C(=O)N5C6CCC5CC6)cc34)CC2)C1` (stereo not drawn), for which, in series [1], the clearance amounted to 0.8 mL/min/kg. This compound returned an area under the curve (AUC) in series [4] of 190 µM·h. The bioavailability in series [2] worked out at 38%. `Cc1cc(C)cc(-c2[nH]c3sc(C(C)(C)C(=O)N4C5CCC4CC5)cc3c2CCN2CCC(C(=O)N3CCOCC3)CC2)c1`: the result in the series on Rattus norvegicus was Active. This compound came in with a clearance in series [1] of 4 mL/min/kg. Also, in series [4], the AUC was 27.1 µM·h.

In turn, `Cc1cc(C)cc(-c2[nH]c3sc(C(C)(C)C(=O)N4C5CCC4CC5)cc3c2C(=O)CN2CCC(C(=O)N3CCOCC3)CC2)c1` came in with an exposure (AUC) in series [5] of 0.36 µM·h.

Take `CC(=O)N1CCN(CC(O)CN2CCN(CCc3c(-c4cc(C)cc(C)c4)[nH]c4sc(C(C)(C)C(=O)N5C6CCC5CC6)cc34)CC2)CC1` (stereo not drawn): at Cytochrome P450 3A4, the pIC50 was 5.22. Further, the solubility in series [3] was determined as 236 µM (≈ 163 µg/mL).

With `CCN(CC)CCOC1CCN(CCc2c(-c3cc(C)cc(C)c3)[nH]c3sc(C(C)(C)C(=O)N4C5CCC4CC5)cc23)CC1`, the AUC in series [5] came out at 0.002 µM·h.
